Key:
Hh pathway [1] = type: cell-based
K-ras pathway = type: cell-based
Hh pathway [2] = assay: ATO combined with cyclopamine, 8×Gli-luciferase reporter in 3T3 cells; type: cell-based; conditions: cyclopamine at fixed concentrations of […] and 0.125 μM, presence of ShhN
Gli = assay: Hh reporter in 3T3 cells cotransfected with SmoA1, Gli2 or Gli1; type: cell-based; conditions: presence or absence of ShhN
[3] = test system: medulloblastoma from Ptch+/−p53−/− mice; assay: Hh activity-induced medulloblastoma allografts in athymic nude mice; type: in vivo; conditions: daily intraperitoneal injection
Method: FIG. 7 is a pictorial and a graphical diagram showing that ATO inhibits growth of Hh activity-induced medulloblastoma allografts in nude mice. Primary medulloblastoma from Ptch+/−p53−/− mice were dissected and injected into athymic nude mice. The mice were injected daily with either control PBS or 3 different doses of ATO intraperitoneally.
The activity of ATO was then tested in vivo in a well-established model of a tumor that is dependent on Hh pathway activity for growth. In this model, primary medulloblastoma cells from Ptch+/−p53−/− mice were dissected and injected into athymic nude mice. The mice were then injected daily with either control PBS or 3 different doses of ATO intra-peritoneally.

Wnt pathway = assay: Wnt reporter (7×TCF/LEF-luciferase) in 3T3 cells; type: cell-based; conditions: increasing concentrations, presence or absence of Wnt3a-conditioned medium
Text: 3T3 cells were transfected with a Wnt reporter (7×TCF/LEF-luciferase) and treated with increasing concentrations of ATO in the presence or absence of Wnt3a-conditioned medium.
To further assess the specificity of the arsenic effect on Hedgehog pathway signaling, 3T3 cells were transfected with a Wnt reporter (7×TCF/LEF-luciferase) and treated with increasing concentrations of ATO in the presence or absence of Wnt3a-conditioned medium.

Compound | Hh signaling (reporter) (Hh pathway [1]) | K-ras pathway activity (SRE-luciferase reporter) (K-ras pathway) | Effect of ATO on Hh pathway when combined with cyclopamine (Hh pathway [2]) | Hh pathway activity (8×Gli-luciferase reporter) (Hh pathway [1]; NIH3T3 cells, increasing concentrations, presence or absence of ShhN-conditioned medium) | Hh reporter activity induced by SmoA1, Gli2 or Gli1 over-expression (Gli) | Tumor allograft growth ([3]; 3 different doses, athymic nude mice) | Tumor allograft growth at the highest concentration tested ([3]; highest concentration tested) | Wnt pathway activity (7×TCF/LEF-luciferase reporter) (Wnt pathway)
O=[As][O-].[Na+] [NaAsO2] | inhibits Hh signaling | did not inhibit, and in fact stimulated the K-ras pathway |  |  |  |  |  | 
arsenic trioxide [ATO] |  |  | significantly improved effect of ATO at lower concentrations | inhibits Hh pathway in a dose-dependent manner | dramatically inhibited reporter activity | suppressed tumor allograft growth in a concentration dependent manner | complete growth suppression | does not inhibit the Wnt pathway

— patent US7867492B2, “Compounds for hedgehog pathway blockade in proliferative disorders, including hematopoietic malignancies” (The John Hopkins University, priority 2007, dated 2011)
